The NIST ThermoML archive (doi:10.1021/je800520w)
Numbers after ± are expanded uncertainties.

Tests used:
[1] = 293.15 K; 101.33 kPa; Liquid; Pycnometric method
[2] = refractive index (Na D-line) (dimensionless); conditions: 293.15 K; 101.33 kPa; Liquid; Standard Abbe refractometry

mass density [1] | refractive index [2] | SMILES
812.9 ± 0.5 kg/m3 | 1.4092 ± 0.0005 | CCCCCO [pentan-1-ol]
803.8 ± 0.5 kg/m3 | 1.3853 ± 0.0005 | CCCO [propan-1-ol]
784.9 ± 0.5 kg/m3 | 1.378 ± 0.0005 | CC(C)O [propan-2-ol]

The remaining lines, values behind:

SMILES | mass density [1] | refractive index [2]
CCCCO [butan-1-ol] | 810.3 ± 0.5 kg/m3 | 1.3997 ± 0.0005
CCC(C)O (centres undefined) [butan-2-ol] | 802.6 ± 0.5 kg/m3 | 1.3955 ± 0.0005
CCCCCCO [hexan-1-ol] | 813.8 ± 0.5 kg/m3 | 1.4175 ± 0.0005
CO [methanol] | 791.7 ± 0.5 kg/m3 | 1.3291 ± 0.0005
